Columns and labels:
Conditions in all cases: incubation time: 72 h
[1] = test system: BT-474; assay: normalised viability (% of control), CellTiter-Blue; higher = more viable cells (about 100 = DMSO control)
Description: (§1)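 DSRT, CellTiter-Blue viability, 72 h incubation. Signal is normalised to DMSO and benzethonium chloride controls. Value is the normalised response at dose 3.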

[2] = test system: BT-549; assay: as above
Description: as §1

[3] = test system: CAL-120; assay: as above
Description: as §1

[4] = test system: CAL-148; assay: as above
Description: as §1

[5] = test system: CAL-51; assay: as above
Description: as §1

[6] = test system: CAL-85-1; assay: as above
Description: as §1

[7] = test system: DU-4475; assay: as above
Description: as §1

[8] = test system: HCC1599; assay: as above
Description: as §1

[9] = test system: HCC1937; assay: as above
Description: as §1

[10] = test system: HDQ-P1; assay: as above
Description: as §1

[11] = test system: Hs578T; assay: as above
Description: as §1

[12] = test system: MDA-MB-231; assay: as above
Description: as §1

[13] = test system: MDA-MB-436; assay: as above
Description: as §1

[14] = test system: MDA-MB-453; assay: as above
Description: as §1

[15] = test system: MDA-MB-468; assay: as above
Description: as §1

[16] = test system: MFM-223; assay: as above
Description: as §1

[17] = test system: SK-BR-3; assay: as above
Description: as §1

[18] = test system: BT-549; assay: drug sensitivity score (DSS), CellTox Green (DSS (AUC-based score)); higher = stronger drug effect (viability inhibition or cytotoxicity); extreme values may be limits of the assay
In short: (§2)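 Compound was dispensed into 384-well plates at 5 concentrations in 10-fold steps spanning a 10,000-fold range chosen for each compound, and 20 µl of breast cancer cell suspension was added before 72 h of incubation. CellTox Green fluorescence was read at 485/520 nm, followed by CellTiter-Glo luminescence after 10 min at room temperature. Values on each plate were normalised to 0.1 % DMSO and a positive kill control. The drug sensitivity score came from the area under the fitted dose-response curve.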

[19] = test system: CAL-85-1; assay: as above
In short: as §2

[20] = test system: DU-4475; assay: as above
In short: as §2

[21] = test system: HCC1599; assay: as above
In short: as §2

[22] = test system: Hs578T; assay: as above
In short: as §2

[23] = test system: MDA-MB-231; assay: as above
In short: as §2

[24] = test system: MDA-MB-453; assay: as above
In short: as §2

[25] = test system: MDA-MB-468; assay: as above
In short: as §2

[26] = test system: MFM-223; assay: as above
In short: as §2

Structure (SMILES): COc1ccc(-c2cc3c(C)nc(N)nc3n([C@H]3CC[C@H](OCCO)CC3)c2=O)cn1
- normalised viability ([1]; 100 nM): 67.8%
- normalised viability ([2]; 100 nM): 66.9%
- normalised viability ([3]; 100 nM): 74.9%
- normalised viability ([4]; 10 nM): 98.1%
- normalised viability ([5]; 10 nM): 93.3%
- normalised viability ([6]; 10 nM): 95.3%
- normalised viability ([7]; 10 nM): 103%
- normalised viability ([8]; 100 nM): 73.6%
- normalised viability ([9]; 100 nM): 65.8%
- normalised viability ([10]; 10 nM): 82%
- normalised viability ([11]; 100 nM): 60.5%
- normalised viability ([12]; 100 nM): 63.2%
- normalised viability ([13]; 100 nM): 80.6%
- normalised viability ([14]; 10 nM): 86.2%
- normalised viability ([15]; 100 nM): 77.3%
- normalised viability ([16]; 100 nM): 68.8%
- normalised viability ([17]; 100 nM): 32.9%
- drug sensitivity score [18]: 5.99
- drug sensitivity score [19]: 4.01
- drug sensitivity score [20]: 0
- drug sensitivity score [21]: 0
- drug sensitivity score [22]: 2
- drug sensitivity score [23]: 14.1
- drug sensitivity score [24]: 0
- drug sensitivity score [25]: 0
- drug sensitivity score [26]: 0

Structure (SMILES): Cc1cccc(-c2nn3c(c2-c2ccnc4ccc(C(N)=O)cc24)CCC3)n1
- normalised viability ([1]; 10 nM): 107%
- normalised viability ([2]; 10 nM): 96.4%
- normalised viability ([3]; 10 nM): 95.1%
- normalised viability ([4]; 1 nM): 99%
- normalised viability ([5]; 1 nM): 96.1%
- normalised viability ([6]; 1 nM): 97.7%
- normalised viability ([7]; 1 nM): 90.5%
- normalised viability ([8]; 10 nM): 101%
- normalised viability ([9]; 10 nM): 122%
- normalised viability ([10]; 1 nM): 106%
- normalised viability ([11]; 10 nM): 96.2%
- normalised viability ([12]; 10 nM): 99%
- normalised viability ([13]; 10 nM): 127%
- normalised viability ([14]; 1 nM): 112%
- normalised viability ([15]; 10 nM): 110%
- normalised viability ([16]; 10 nM): 96.8%
- normalised viability ([17]; 10 nM): 98.9%

Structure (SMILES): Cn1cc(CNCC2CCN(c3ncc(C(=O)NO)cn3)CC2)c2ccccc21
- normalised viability ([1]; 10 nM): 78.2%
- normalised viability ([2]; 10 nM): 103%
- normalised viability ([3]; 10 nM): 58.3%
- normalised viability ([4]; 1 nM): 98.3%
- normalised viability ([5]; 1 nM): 102%
- normalised viability ([6]; 1 nM): 90.7%
- normalised viability ([7]; 1 nM): 89%
- normalised viability ([8]; 10 nM): 73.7%
- normalised viability ([9]; 10 nM): 76.4%
- normalised viability ([10]; 1 nM): 100%
- normalised viability ([11]; 10 nM): 86.8%
- normalised viability ([12]; 10 nM): 99.5%
- normalised viability ([13]; 10 nM): 77.9%
- normalised viability ([14]; 1 nM): 86.3%
- normalised viability ([15]; 10 nM): 78.3%
- normalised viability ([16]; 10 nM): 74.7%
- normalised viability ([17]; 10 nM): 35.8%

Structure (SMILES): O=C(NC[C@H](O)CO)c1ccncc1Nc1ccc(I)cc1F
- normalised viability ([1]; 100 nM): 110%
- normalised viability ([2]; 100 nM): 101%
- normalised viability ([3]; 100 nM): 85.1%
- normalised viability ([4]; 10 nM): 80.3%
- normalised viability ([5]; 10 nM): 99.2%
- normalised viability ([6]; 10 nM): 90.6%
- normalised viability ([7]; 10 nM): 63.7%
- normalised viability ([8]; 100 nM): 101%
- normalised viability ([9]; 100 nM): 88.7%
- normalised viability ([10]; 10 nM): 97.9%
- normalised viability ([11]; 100 nM): 79.8%
- normalised viability ([12]; 100 nM): 44.8%
- normalised viability ([13]; 100 nM): 114%
- normalised viability ([14]; 10 nM): 88.7%
- normalised viability ([15]; 100 nM): 87.3%
- normalised viability ([16]; 100 nM): 85.4%
- normalised viability ([17]; 100 nM): 78.1%

Source: the supplement of paper PMC4862054
